Laboratory results: patent US12649750B2, “Macrocyclic compounds, compositions, and methods of using thereof” (Sionna Therapeutics Inc., priority 2022, dated 2026)

What was measured:
[1] = molecular target: T1, NBD1 (Homo sapiens, UniProt P13569); test: Aggregation analysis using differential static light scattering (DSLS), thermal stability of NBD1 (ΔTagg); assay type: binding; conditions: ΔTagg versus DMSO control, NBD1 0.2 mg/ml
T1 construct: Purified recombinant NBD1 was produced using previously described methods; made in house
Procedure, shortened: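 Stabilisation is measured as the shift in aggregation onset of recombinant NBD1 (0.2 mg/ml, 2 mM ATP, 5 mM MgCl2, pH7.6) exposed to compound. Images are taken every 0.5° C. while heating at 1° C. per minute, and the inflection-point Tagg is corrected by the DMSO mean.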

[2] = molecular target: T2, CFTR (Homo sapiens, UniProt P13569, DEL508-508); test: TECC24 AUC fold over DMSO @10 μM, CFTR-mediated transepithelial chloride transport in CF-HBE cells; assay type: cell-based; conditions: test agent AUC divided by DMSO vehicle AUC, primary CF-HBE cells, ΔF508 homozygous donor, 48 hours incubation
T2 construct: Primary human bronchial epithelial cells from a ΔF508 homozygous CF donor; host or cells: primary human bronchial epithelial cells (CF-HBE), ΔF508 homozygous donor
Procedure, shortened: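 Primary ΔF508-homozygous CF bronchial epithelial cells on inserts were incubated 48 h at 36.5 °C with compound in IL-13-containing medium. VT and TEER were then recorded in current-clamp mode (pH 7.4 HEPES bath) with benzamil 10 μM, forskolin 10 μM, then CFTR inhibitor-172 20 μM. The IEQ AUC between forskolin and inhibitor was divided by vehicle AUC.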

T2 sequence (P13569 with tags, fused parts or gaps DEL508-508): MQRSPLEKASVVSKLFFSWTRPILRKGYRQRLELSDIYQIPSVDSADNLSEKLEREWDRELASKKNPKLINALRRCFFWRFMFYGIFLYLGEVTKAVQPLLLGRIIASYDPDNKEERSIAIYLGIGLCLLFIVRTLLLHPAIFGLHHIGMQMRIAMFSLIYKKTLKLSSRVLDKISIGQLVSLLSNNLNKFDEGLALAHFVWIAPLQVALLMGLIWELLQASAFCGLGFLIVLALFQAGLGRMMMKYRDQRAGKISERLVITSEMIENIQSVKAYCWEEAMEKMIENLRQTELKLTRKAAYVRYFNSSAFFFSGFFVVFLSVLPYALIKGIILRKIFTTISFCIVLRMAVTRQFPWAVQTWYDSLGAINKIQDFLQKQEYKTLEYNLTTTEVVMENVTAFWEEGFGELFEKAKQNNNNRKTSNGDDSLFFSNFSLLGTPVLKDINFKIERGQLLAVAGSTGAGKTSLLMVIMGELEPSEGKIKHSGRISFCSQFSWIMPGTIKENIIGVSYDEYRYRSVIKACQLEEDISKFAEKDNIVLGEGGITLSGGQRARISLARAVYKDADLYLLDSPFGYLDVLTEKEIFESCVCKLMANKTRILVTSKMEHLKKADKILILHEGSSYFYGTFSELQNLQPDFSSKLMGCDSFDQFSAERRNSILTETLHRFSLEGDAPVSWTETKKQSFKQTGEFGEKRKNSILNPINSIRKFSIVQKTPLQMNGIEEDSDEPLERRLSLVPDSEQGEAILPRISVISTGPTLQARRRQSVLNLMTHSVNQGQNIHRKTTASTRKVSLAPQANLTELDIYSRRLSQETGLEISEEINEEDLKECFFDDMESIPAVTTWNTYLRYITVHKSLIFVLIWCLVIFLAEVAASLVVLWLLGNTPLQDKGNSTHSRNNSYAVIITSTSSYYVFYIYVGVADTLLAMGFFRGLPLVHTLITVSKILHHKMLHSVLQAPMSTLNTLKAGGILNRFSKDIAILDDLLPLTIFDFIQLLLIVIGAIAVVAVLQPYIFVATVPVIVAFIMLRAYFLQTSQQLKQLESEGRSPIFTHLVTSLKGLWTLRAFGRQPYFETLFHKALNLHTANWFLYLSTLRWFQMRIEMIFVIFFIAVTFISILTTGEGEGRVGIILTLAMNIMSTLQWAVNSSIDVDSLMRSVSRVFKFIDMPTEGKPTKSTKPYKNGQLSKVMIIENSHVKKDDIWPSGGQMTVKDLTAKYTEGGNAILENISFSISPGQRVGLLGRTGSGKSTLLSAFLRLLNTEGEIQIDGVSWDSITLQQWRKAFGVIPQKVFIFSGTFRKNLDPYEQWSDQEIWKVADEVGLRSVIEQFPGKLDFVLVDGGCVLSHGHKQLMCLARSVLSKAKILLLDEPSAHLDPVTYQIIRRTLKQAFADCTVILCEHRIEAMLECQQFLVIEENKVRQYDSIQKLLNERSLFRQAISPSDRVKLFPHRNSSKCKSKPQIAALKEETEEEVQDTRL
T1 sequence (P13569 423-646 limits assumed): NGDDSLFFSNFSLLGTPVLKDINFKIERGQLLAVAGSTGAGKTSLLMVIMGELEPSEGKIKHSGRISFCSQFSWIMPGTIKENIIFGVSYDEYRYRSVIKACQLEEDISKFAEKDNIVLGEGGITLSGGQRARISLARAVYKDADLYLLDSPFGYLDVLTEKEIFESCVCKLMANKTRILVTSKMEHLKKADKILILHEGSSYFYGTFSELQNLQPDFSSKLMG

How did the “DSLS 3D (100 μM ΔT)” value [1] turn out when CC(Oc1cccc(C2(C)CCCC(C)(C)CS(=O)(=O)CCc3c(c(F)cc4[nH]ccc34)Oc3ccc(F)c(c3)-c3nc2nn3C)c1)C(=O)O (single isomer, unassigned) [Compound 19A, 2-[3-[22,28-difluoro-3,6,10,10-tetramethyl-12,12-dioxo-24-oxa-12 6-thia-3,4,19,30-tetrazapentacyclo[23.3.1.12,5.015,23.016,20]triaconta-1(29),2(30),4,15,17,20,22,25,27-nonaen-6-yl]phenoxy]propanoic Acid] was run?
Its value is “C (a value greater than 10 °C and less than or equal to 25 °C is marked “C”)”.

And the “TECC (AUC, 10 μM)” value [2]?
The value was “C (a value between 20 and 80 is marked “C”)”.

What does the source list for CC(Cc1cccc(C2(C#N)CCCC(C)(C)CS(=O)(=O)CCc3c(c(F)cc4[nH]ccc34)Oc3ccc(F)c(c3)-c3nc2nn3C)c1)C(=O)O (single isomer, unassigned) [Compound 20A, 3-[3-[6-cyano-22,28-difluoro-3,10,10-trimethyl-12,12-dioxo-24-oxa-12lambda6-thia-3,4,19,30-tetrazapentacyclo[23.3.1.12,5.015,23.016,20]triaconta-1(29),2(30),4,15,17,20,22,25,27-nonaen-6-yl]phenyl]-2-methyl-propanoic Acid]?
DSLS 3D (100 μM ΔT) [1]: C (a value greater than 10 °C and less than or equal to 25 °C is marked “C”); TECC (AUC, 10 μM) [2]: C (a value between 20 and 80 is marked “C”)

How did the “DSLS 3D (100 μM ΔT)” value [1] turn out when CC(Cc1cccc(C2(C#N)CCCC(C)(C)CS(=O)(=O)CCc3c(c(F)cc4[nH]ccc34)Oc3ccc(F)c(c3)-c3nc2nn3C)c1)C(=O)O (single isomer, unassigned) [Compound 20B, 3-[3-[6-cyano-22,28-difluoro-3,10,10-trimethyl-12,12-dioxo-24-oxa-12lambda6-thia-3,4,19,30-tetrazapentacyclo[23.3.1.12,5.015,23.016,20]triaconta-1(29),2(30),4,15,17,20,22,25,27-nonaen-6-yl]phenyl]-2-methyl-propanoic acid] was run?
Its value is “A (an ΔTagg value less than or equal to 5 °C is marked “A”)”.

And the “TECC (AUC, 10 μM)” value [2]?
Its value is “A (a TECC value less than 12 is marked “A”)”.

What does the source list for CC1(C)CCCC(c2cccc(CCC(=O)O)c2)n2cc(C#N)c(n2)-c2cc(ccc2F)Oc2c(F)cc3[nH]ccc3c2CCS(=O)(=O)C1 (single isomer, unassigned) [Compound 22B, 3-[3-[3-cyano-22,28-difluoro-10,10-dimethyl-12,12-dioxo-24-oxa-12lambda6-thia-5,19,30-triazapentacyclo[23.3.1.12,5.015,23.016,20]triaconta-1(29),2(30),3,15,17,20,22,25,27-nonaen-6-yl]phenyl]propanoic acid]?
DSLS 3D (100 μM ΔT) [1]: A (an ΔTagg value less than or equal to 5 °C is marked “A”); TECC (AUC, 10 μM) [2]: B (a value between 12-20 is marked “B”)

How did the “DSLS 3D (100 μM ΔT)” value [1] turn out when CC1(C)CCCC(c2cccc(CCC(=O)O)c2)n2cc(C#N)c(n2)-c2cc(ccc2F)Oc2c(F)cc3[nH]ccc3c2CCS(=O)(=O)C1 (single isomer, unassigned) [Compound 22C, 3-[3-[3-cyano-22,28-difluoro-10,10-dimethyl-12,12-dioxo-24-oxa-12lambda6-thia-5,19,30-triazapentacyclo[23.3.1.12,5.015,23.016,20]triaconta-1(29),2(30),3,15,17,20,22,25,27-nonaen-6-yl]phenyl]propanoic acid] was run?
The value was “C (a value greater than 10 °C and less than or equal to 25 °C is marked “C”)”.

What about the “TECC (AUC, 10 μM)” value [2] of the same molecule?
Its value is “C (a value between 20 and 80 is marked “C”)”.

How did the “DSLS 3D (100 μM ΔT)” value [1] turn out when CC1(C)CCCC(c2cccc(CCC(=O)O)c2)n2ccc(n2)-c2cc(ccc2F)Oc2c(F)cc3[nH]ccc3c2CCS(=O)(=O)C1 (single isomer, unassigned) [Compound 24A, 3-[3-[22,28-difluoro-10,10-dimethyl-12,12-dioxo-24-oxa-12lambda6-thia-5,19,30-triazapentacyclo[23.3.1.12,5.015,23.016,20]triaconta-1(29),2(30),3,15,17,20,22,25,27-nonaen-6-yl]phenyl]propanoic Acid] was run?
Its value is “B (a value above 5 °C and less than or equal to 10 °C is marked “B”)”.

And the “TECC (AUC, 10 μM)” value [2]?
The value was “A (a TECC value less than 12 is marked “A”)”.

With CC1(C)CCCC(c2cccc(CCC(=O)O)c2)n2ccc(n2)-c2cc(ccc2F)Oc2c(F)cc3[nH]ccc3c2CCS(=O)(=O)C1 (single isomer, unassigned) [Compound 24B, 3-[3-[22,28-difluoro-10,10-dimethyl-12,12-dioxo-24-oxa-12lambda6-thia-5,19,30-triazapentacyclo[23.3.1.12,5.015,23.016,20]triaconta-1(29),2(30),3,15,17,20,22,25,27-nonaen-6-yl]phenyl]propanoic Acid] as the molecule, how does the “DSLS 3D (100 μM ΔT)” value [1] read?
The value was “C (a value greater than 10 °C and less than or equal to 25 °C is marked “C”)”.

What about the “TECC (AUC, 10 μM)” value [2] of the same molecule?
The value was “A (a TECC value less than 12 is marked “A”)”.

CC1(C)CCCC(C)(c2cccc(CCC(=O)O)c2)c2c[nH]c(n2)-c2cc(ccc2F)Oc2c(F)cc3[nH]ccc3c2CCS(=O)(=O)C1 (single isomer, unassigned) [Compound 27A, 3-[3-(22,28-difluoro-6,10,10-trimethyl-12,12-dioxo-24-oxa-12lambda6-thia-3,19,30-triazapentacyclo[23.3.1.12,5.015,23.016,20]triaconta-1(29),2,4,15,17,20,22,25,27-nonaen-6-yl)phenyl]propanoic acid] was tested. Which “DSLS 3D (100 μM ΔT)” value [1] did it give?
Its value is “B (a value above 5 °C and less than or equal to 10 °C is marked “B”)”.

What about the “TECC (AUC, 10 μM)” value [2] of the same molecule?
The value was “A (a TECC value less than 12 is marked “A”)”.

CC1(C)CCCC(C)(c2cccc(CCC(=O)O)c2)c2c[nH]c(n2)-c2cc(ccc2F)Oc2c(F)cc3[nH]ccc3c2CCS(=O)(=O)C1 (single isomer, unassigned) [Compound 27B, 3-[3-(22,28-difluoro-6,10,10-trimethyl-12,12-dioxo-24-oxa-12lambda6-thia-3,19,30-triazapentacyclo[23.3.1.12,5.015,23.016,20]triaconta-1(29),2,4,15,17,20,22,25,27-nonaen-6-yl)phenyl]propanoic acid] was tested. Which “DSLS 3D (100 μM ΔT)” value [1] did it give?
Its value is “C (a value greater than 10 °C and less than or equal to 25 °C is marked “C”)”.

And the “TECC (AUC, 10 μM)” value [2]?
The value was “C (a value between 20 and 80 is marked “C”)”.

CC(Cc1cccc(C2(C)CCOC(C)(C)CS(=O)(=O)CCc3c(c(F)cc4[nH]ccc34)Oc3ccc(F)c(c3)-c3nc2nn3C)c1)C(=O)O (single isomer, unassigned) [Compound 28A, 3-[3-(22,28-difluoro-3,6,10,10-tetramethyl-12,12-dioxo-9,24-dioxa-12lambda6-thia-3,4,19,30-tetrazapentacyclo[23.3.1.12,5.015,23.016,20]triaconta-1(29),2(30),4,15,17,20,22,25,27-nonaen-6-yl)phenyl]-2-methyl-propanoic Acid] was tested. Which “DSLS 3D (100 μM ΔT)” value [1] did it give?
Its value is “C (a value greater than 10 °C and less than or equal to 25 °C is marked “C”)”.

What about the “TECC (AUC, 10 μM)” value [2] of the same molecule?
Its value is “C (a value between 20 and 80 is marked “C”)”.

What does the source list for CC(Cc1cccc(C2(C)CCOC(C)(C)CS(=O)(=O)CCc3c(c(F)cc4[nH]ccc34)Oc3ccc(F)c(c3)-c3nc2nn3C)c1)C(=O)O (single isomer, unassigned) [Compound 28B, 3-[3-(22,28-difluoro-3,6,10,10-tetramethyl-12,12-dioxo-9,24-dioxa-12lambda6-thia-3,4,19,30-tetrazapentacyclo[23.3.1.12,5.015,23.016,20]triaconta-1(29),2(30),4,15,17,20,22,25,27-nonaen-6-yl)phenyl]-2-methyl-propanoic Acid]?
DSLS 3D (100 μM ΔT) [1]: A (an ΔTagg value less than or equal to 5 °C is marked “A”); TECC (AUC, 10 μM) [2]: B (a value between 12-20 is marked “B”)

What does the source list for Cn1nc2nc1-c1cc(ccc1F)Oc1c(F)cc3[nH]ccc3c1CCS(=O)(=O)CC(C)(C)CCCC2(C)c1cccc(CC(C)(C)C(=O)O)c1 (single isomer, unassigned) [Compound 29A, 3-[3-(22,28-Difluoro-3,6,10,10-tetramethyl-12,12-dioxo-24-oxa-12lambda6-thia-3,4,19,30-tetrazapentacyclo[23.3.1.12,5.015,23.016,20]triaconta-1(29),2(30),4,15,17,20,22,25,27-nonaen-6-yl)phenyl]-2,2-dimethyl-propanoic acid]?
DSLS 3D (100 μM ΔT) [1]: C (a value greater than 10 °C and less than or equal to 25 °C is marked “C”); TECC (AUC, 10 μM) [2]: C (a value between 20 and 80 is marked “C”)

For Cn1nc2nc1-c1cc(ccc1F)Oc1c(F)cc3[nH]ccc3c1CCS(=O)(=O)CC(C)(C)CCCC2(C)c1cccc(CC(C)(C)C(=O)O)c1 (single isomer, unassigned) [Compound 29B, 3-[3-(22,28-Difluoro-3,6,10,10-tetramethyl-12,12-dioxo-24-oxa-12lambda6-thia-3,4,19,30-tetrazapentacyclo[23.3.1.12,5.015,23.016,20]triaconta-1(29),2(30),4,15,17,20,22,25,27-nonaen-6-yl)phenyl]-2,2-dimethyl-propanoic acid], which “DSLS 3D (100 μM ΔT)” value [1] is on record?
Its value is “A (an ΔTagg value less than or equal to 5 °C is marked “A”)”.

And the “TECC (AUC, 10 μM)” value [2]?
The value was “A (a TECC value less than 12 is marked “A”)”.
